Results published in patent publication US7262318B2, “Substituted heteroaryl- and phenylsulfamoyl compounds” (Pfizer, Inc., priority 2004, dated 2007).

Test system: transition cows
Assay: Blood non-esterified fatty acid (NEFA) concentrations in transition cows
Format: in vivo, cow
Conditions: 0.5 mg/kg every other day from targeted day -7 pre partum and at calving, days 1–8, p<0.10, with the exception of day 5 (p=0.17)
Description: Determination of Chances in Blood Non-esterified Fatty Acid (NEFA) Concentrations and Liver Triglycerides Levels:
Compounds are administered once or several times in the transition period at dose levels predicted to be effective by comparing results of in-vitro receptor affinity tests in laboratory species and pharmacokinetic evaluations in cattle. NEFA levels are determined via standard laboratory methods, for example, using the commercial WAKO NEFA kit (Wako Chemical Co., USA, Dallas, Tex., 994-75409), and liver triglyceride content is determined using the method as described in the literature (J. K. Drackley, J. J. Veenhuizen, M. J. Richard and J. W. Young, J Dairy Sci, 1991, 74, 4254)).
All animals may be obtained from a commercial dairy farm approximately thirty days prior to anticipated calving date. […]
As soon as possible post-calving (˜30 minutes) the cow is transferred to the freestall barn for the next scheduled milking (6:00 hrs and 19:00 hrs). […] Pre and post-calving NEFA samples are analyzed using the WAKO NEFA-C test kit (#994-75409). […] Tissues are transported on ice and stored frozen at −70° F. At the conclusion of the study, samples are analysed of liver triglyceride levels using the method described by Drackley, J. K. et al. (1991, J Dairy Sci (74):4254–4264).

Cc1ccc(S(=O)(=O)Nc2ccc(-c3ccc(OC(F)(F)F)cc3)cc2)cc1C(=O)O [Example T02, 2-Methyl-5-(4′-trifluoromethoxy-biphenyl-4-ylsulfamoyl)-benzoic acid]
serum NEFA levels as compared to control: significantly lower
